Data as given in patent publication US12268665B2, “Combination of immunotherapies with MDM2 inhibitors” (ASCENTAGE PHARMA (SUZHOU) CO., LTD., priority 2018, dated 2025).

How the values were obtained:
[1] = Phase I study CTR20170975 in Chinese patients: safety; format: in vivo, human
Description: Patients with advanced soft tissue sarcoma (STS), adenoid cystic carcinoma (ACC) or other solid tumors in China (CTR20170975) were treated with APG-115. In dose escalation, patients received APG-115 (100-200 mg) orally QOD for first 21 days of a 28-day cycle, until disease progression. Study objectives include safety (primary endpoint), pharmacokinetics (PK), pharmacodynamics (PD), and antitumor activity assessed every 8 weeks.
This is a Phase I study (CTR20170975) is designed to assess the safety, dose-limiting toxicities (DLT), the maximum tolerated dose (MTD)/recommended phase 2 dose (RP2D), pharmacokinetics (PK), pharmacodynamics (PD) profile and anti-tumor activity of orally administered APG-115 in Chinese patients with advanced soft tissue sarcoma and other solid tumors.
Single dose escalation study was conducted. A standard “3+3” design was employed to determine the maximum tolerated dose (MTD) of APG-115 by assessing the dose limiting toxicity (DLT) of APG-115. Three dose levels of APG-115 was tested: 100, 150, 200 mg. APG-115 was administrated orally every other day (QOD) for a consecutive 3 weeks (i.e. dosed at Day 1, 3, 5, 7, 9, 11, 13, 15, 17, 19, and 21), with one week dosing off as 4-weeks a cycle. […] The scheme of the trial design is provided below.
This study was conducted with an initial dosage of […], according to the preliminary safety results in phase I study of APG-115 in the US.

[2] = test system: CD4+ T cells isolated from mouse spleens; assay: Activation of CD4+ T cells by APG-115 (flow cytometry); format: cell-based
Description: Effector T cells play a critical role in antitumor immunity. To investigate whether APG-115 influenced T cell function, CD4^+ T cells isolated from mouse spleens were exposed to APG-115 or solvent control DMSO.
Specifically, CD4^+ T cells were positively selected from mouse spleens using magnetic beads and stimulated with 5 μg/ml plate-bound anti-CD3 and 2 μg/ml anti-CD28 in the presence of APG-115 (250 nM) or DMSO for 24 h (Day 1) or 48 h (Day 2). The percentages of CD25-expressing and CD62L-expressing populations (top panel), and FSC (lower panel) were determined by flow cytometry.

[3] = 250 nM, anti-CD3/anti-CD28 stimulated, 24 h or 48 h

CCN1[C@@H](C(=O)NC23CCC(C(=O)O)(CC2)CC3)[C@H](c2cccc(Cl)c2F)[C@]2(C(=O)Nc3cc(Cl)ccc32)C12CCCCC2 [APG-115]
MTD ([1]; QOD, 21 days on 7 days off): 150 mg
Adverse Event: Abdominal distension ([1]; human, in vivo): 2 (14.3%)
Adverse Event: Abdominal pain ([1]; human, in vivo): 2 (14.3%)
Adverse Event: Anaemia ([1]; human, in vivo): 11 (78.6%)
Adverse Event: Any AE ([1]; human, in vivo): 14 (100.0%)
Adverse Event: Asthenia ([1]; human, in vivo): 2 (14.3%)
Adverse Event: Blood alkaline phosphatase increased ([1]; human, in vivo): 2 (14.3%)
Adverse Event: Blood creatinine increased ([1]; human, in vivo): 2 (14.3%)
Adverse Event: Cancer pain ([1]; human, in vivo): 2 (14.3%)
Adverse Event: Decreased appetite ([1]; human, in vivo): 2 (14.3%)
Adverse Event: Febrile neutropenia ([1]; human, in vivo): 2 (14.3%)
Adverse Event: Gamma-glutamyltransferase increased ([1]; human, in vivo): 4 (28.6%)
Adverse Event: Headache ([1]; human, in vivo): 2 (14.3%)
Adverse Event: Hypercholesterolaemia ([1]; human, in vivo): 8 (57.1%)
Adverse Event: Hypertriglyceridaemia ([1]; human, in vivo): 5 (35.7%)
Adverse Event: Hyperuricaemia ([1]; human, in vivo): 3 (21.4%)
Adverse Event: Hypoalbuminaemia ([1]; human, in vivo): 7 (50.0%)
Adverse Event: Hypokalaemia ([1]; human, in vivo): 3 (21.4%)
Adverse Event: Insomnia ([1]; human, in vivo): 2 (14.3%)
Adverse Event: Low density lipoprotein increased ([1]; human, in vivo): 2 (14.3%)
Adverse Event: Nausea ([1]; human, in vivo): 5 (35.7%)
Adverse Event: Neutrophil count decreased ([1]; human, in vivo): 5 (35.7%)
Adverse Event: Oedemaperipheral ([1]; human, in vivo): 3 (21.4%)
Adverse Event: Platelet count decreased ([1]; human, in vivo): 9 (64.3%)
Adverse Event: Vomiting ([1]; human, in vivo): 8 (57.1%)
Adverse Event: White blood cell count decreased ([1]; human, in vivo): 7 (50.0%)
Grade 3 Adverse Event: Anaemia ([1]; human, in vivo): 5 (35.7%)
Grade 3 Adverse Event: Any AE ([1]; human, in vivo): 10 (71.4%)
Grade 3 Adverse Event: Blood creatinine increased ([1]; human, in vivo): 1 (7.1%)
Grade 3 Adverse Event: Dyspnoea ([1]; human, in vivo): 1 (7.1%)
Grade 3 Adverse Event: Febrile neutropenia ([1]; human, in vivo): 2 (14.3%)
Grade 3 Adverse Event: Lipase increased ([1]; human, in vivo): 1 (7.1%)
Grade 3 Adverse Event: Neutrophil count decreased ([1]; human, in vivo): 4 (28.6%)
Grade 3 Adverse Event: Platelet count decreased ([1]; human, in vivo): 6 (42.9%)
Grade 3 Adverse Event: Pulmonary embolism ([1]; human, in vivo): 1 (7.1%)
Grade 3 Adverse Event: Ureteric obstruction ([1]; human, in vivo): 1 (7.1%)
Grade 3 Adverse Event: Vomiting ([1]; human, in vivo): 2 (14.3%)
Grade 3 Adverse Event: White blood cell count decreased ([1]; human, in vivo): 4 (28.6%)
Grade 3 or 4 TRAE: anaemia ([1]; human, in vivo): 38.5%
Grade 3 or 4 TRAE: leukopenia ([1]; human, in vivo): 30.8%
Grade 3 or 4 TRAE: neutropenia ([1]; human, in vivo): 23.1%
Grade 3 or 4 TRAE: thrombocytopenia ([1]; human, in vivo): 38.5%
RP2D ([1]; human, in vivo): 100 mg
SAE, % of pts ([1]; human, in vivo): 54%
SAE, pts ([1]; human, in vivo): 7 pts
most common Grade 3 or 4 AEs ([1]; human, in vivo): hematologic toxicities, particularly thrombocytopenia
caspase 3 cleavage in T cells ([2]; 250 nM of APG-115): not detected
CD25^highCD62L^low cell populations [2, 3]: rapid increase
cell size of stimulated CD4+ T cells (FSC) [2, 3]: increase in cell size
